Reference: ChEMBL document CHEMBL2390918, “Cinnamides as selective small-molecule inhibitors of a cellular model of breast cancer stem cells” (Bioorg Med Chem Lett, 2013)
Activity calls are given as the source filed them. The rule behind the calls is not given here.

Legend:
[1] = Cytotoxicity against human HMLE cells expressing shRNA and GFP at 20 uM after 70 to 74 hrs by Cell Titer Glo assay; assay type: cell-based
HMLE = experiment: Cytotoxicity against human CSC-like HMLE cells expressing shRNA and epithelial cadherin at 20 uM after 70 to 74 hrs by Cell Titer Glo assay; assay type: functional, cell-based
[2] = Solubility in PBS at 100 uM after 24 hrs at pH 7.4 by UPLC-MS analysis; assay type: physicochemical
[3] = Selectivity ratio of EC50 for human CSC-like HMLE cells expressing shRNA and epithelial cadherin to EC50 for human HMLE cells expressing shRNA and GFP; assay type: ADME, cell-based; conditions: read-out: Ratio EC50
[4] = Cytotoxicity against human HMLE cells expressing shRNA and GFP after 70 to 74 hrs by Cell Titer Glo assay; assay type: cell-based
[5] = Cytotoxicity against human CSC-like HMLE cells expressing shRNA and epithelial cadherin after 70 to 74 hrs by Cell Titer Glo assay; assay type: functional, cell-based
[6] = target: Sodium-dependent dopamine transporter (Homo sapiens) (UniProt Q01959); conditions: CHO-K1, 10 uM
[7] = Displacement of [3H]GABA from GABA transporter in Wistar rat cerebral cortex after 20 mins; assay type: tissue-based
Rattus norvegicus [8] = organism: Rattus norvegicus; experiment: Displacement of [3H]GABA from GABA transporter in Wistar rat cerebral cortex at 10 uM after 20 mins relative to control; assay type: tissue-based
[9] = target: 5-hydroxytryptamine receptor 2B (Homo sapiens) (UniProt P41595); conditions: CHO-K1, 10 uM
[10] = Selectivity ratio of EC50 for human HMLE cells expressing shRNA and GFP to EC50 for human CSC-like HMLE cells expressing shRNA and epithelial cadherin; assay type: ADME, cell-based; conditions: read-out: Ratio EC50
[11] = target: 5-hydroxytryptamine receptor 1A (Homo sapiens) (UniProt P08908); experiment: Displacement of [3H]8-OH-DPAT from human recombinant 5HT1A receptor expressed in CHOK1 cells at 10 uM after 60 mins relative to control; assay type: cell-based; conditions: CHO-K1
Rattus norvegicus [12] = organism: Rattus norvegicus; experiment: Displacement of [125I]Triiodothyronine from thyroid hormone receptor in Wistar rat liver at 10 uM after 18 hrs relative to control
Rattus norvegicus [13] = organism: Rattus norvegicus; experiment: Displacement of [3H]Rolipram from rolipram binding site in Wistar rat brain at 10 uM after 60 mins relative to control
[14] = target: 5-hydroxytryptamine receptor 3A (Homo sapiens) (UniProt P46098); conditions: HEK293, 10 uM
Substance-P receptor [15] = target: T1, Substance-P receptor (Homo sapiens, UniProt P25103); experiment: Displacement of [3H]Substance P from human recombinant substance P receptor expressed in CHO cells after 90 mins; assay type: cell-based
Substance-P receptor [16] = target: T1, Substance-P receptor; experiment: Displacement of [3H]Substance P from human recombinant substance P receptor expressed in CHO cells at 10 uM after 90 mins relative to control; assay type: cell-based
[17] = Displacement of [3H]Batrachotoxin from sodium channel site 2 in Wistar rat brain after 60 mins
Rattus norvegicus [18] = organism: Rattus norvegicus; conditions: Wistar, 10 uM

T1 sequence (P25103 whole entry): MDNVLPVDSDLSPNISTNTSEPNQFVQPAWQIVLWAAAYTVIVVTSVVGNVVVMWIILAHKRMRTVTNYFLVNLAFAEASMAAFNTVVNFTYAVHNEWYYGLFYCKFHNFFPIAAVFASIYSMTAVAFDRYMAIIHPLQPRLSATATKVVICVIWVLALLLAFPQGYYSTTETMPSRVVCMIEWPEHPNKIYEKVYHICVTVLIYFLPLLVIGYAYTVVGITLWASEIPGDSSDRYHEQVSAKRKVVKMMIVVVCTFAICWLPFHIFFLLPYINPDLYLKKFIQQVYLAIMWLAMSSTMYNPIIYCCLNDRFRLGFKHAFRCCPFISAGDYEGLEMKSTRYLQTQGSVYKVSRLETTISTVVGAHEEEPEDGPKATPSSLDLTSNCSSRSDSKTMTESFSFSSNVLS
Chain of 5-hydroxytryptamine receptor 3A (Homo sapiens) (P46098 whole entry): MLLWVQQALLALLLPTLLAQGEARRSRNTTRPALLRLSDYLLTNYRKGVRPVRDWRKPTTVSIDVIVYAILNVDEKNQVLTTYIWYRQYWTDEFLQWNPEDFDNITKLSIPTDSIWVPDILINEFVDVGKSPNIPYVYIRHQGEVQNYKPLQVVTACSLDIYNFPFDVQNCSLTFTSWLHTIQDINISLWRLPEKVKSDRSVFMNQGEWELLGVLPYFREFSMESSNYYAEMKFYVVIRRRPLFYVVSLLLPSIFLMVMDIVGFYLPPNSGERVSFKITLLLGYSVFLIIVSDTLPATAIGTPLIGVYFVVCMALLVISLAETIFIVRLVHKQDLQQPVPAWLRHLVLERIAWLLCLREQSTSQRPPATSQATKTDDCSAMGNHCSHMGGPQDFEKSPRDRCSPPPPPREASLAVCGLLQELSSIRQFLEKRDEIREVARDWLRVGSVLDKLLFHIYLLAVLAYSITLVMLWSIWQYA
Chain of 5-hydroxytryptamine receptor 2B (Homo sapiens) (P41595 whole entry): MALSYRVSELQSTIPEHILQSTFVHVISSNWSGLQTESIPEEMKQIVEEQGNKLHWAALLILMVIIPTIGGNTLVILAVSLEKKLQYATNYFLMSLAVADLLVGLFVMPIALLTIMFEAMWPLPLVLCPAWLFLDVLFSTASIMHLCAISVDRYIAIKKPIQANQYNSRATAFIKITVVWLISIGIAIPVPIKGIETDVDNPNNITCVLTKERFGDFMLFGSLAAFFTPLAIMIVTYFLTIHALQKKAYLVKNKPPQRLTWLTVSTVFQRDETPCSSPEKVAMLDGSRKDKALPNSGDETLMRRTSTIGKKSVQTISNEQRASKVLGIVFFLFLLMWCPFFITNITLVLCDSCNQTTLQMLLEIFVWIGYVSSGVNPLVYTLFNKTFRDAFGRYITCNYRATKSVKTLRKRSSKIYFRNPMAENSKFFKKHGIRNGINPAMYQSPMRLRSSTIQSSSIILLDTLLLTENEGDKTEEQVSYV
Chain of Sodium-dependent dopamine transporter (Homo sapiens) (Q01959 whole entry): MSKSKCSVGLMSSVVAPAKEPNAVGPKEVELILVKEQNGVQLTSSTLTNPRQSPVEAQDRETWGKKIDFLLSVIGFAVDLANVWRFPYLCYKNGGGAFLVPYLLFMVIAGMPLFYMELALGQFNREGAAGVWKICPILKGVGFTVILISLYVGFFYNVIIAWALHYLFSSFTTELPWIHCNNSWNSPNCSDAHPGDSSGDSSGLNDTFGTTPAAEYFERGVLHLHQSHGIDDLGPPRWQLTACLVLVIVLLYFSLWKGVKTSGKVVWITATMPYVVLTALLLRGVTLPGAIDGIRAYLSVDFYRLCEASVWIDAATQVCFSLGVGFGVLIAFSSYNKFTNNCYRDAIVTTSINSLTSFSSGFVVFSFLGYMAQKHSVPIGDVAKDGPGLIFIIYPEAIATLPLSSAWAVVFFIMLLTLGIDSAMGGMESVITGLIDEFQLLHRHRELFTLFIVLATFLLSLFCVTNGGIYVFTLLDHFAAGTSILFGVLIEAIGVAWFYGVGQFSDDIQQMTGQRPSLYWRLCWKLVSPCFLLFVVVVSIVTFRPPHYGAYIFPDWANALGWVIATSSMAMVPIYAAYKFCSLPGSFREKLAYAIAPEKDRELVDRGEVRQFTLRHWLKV
Chain of 5-hydroxytryptamine receptor 1A (Homo sapiens) (P08908 whole entry): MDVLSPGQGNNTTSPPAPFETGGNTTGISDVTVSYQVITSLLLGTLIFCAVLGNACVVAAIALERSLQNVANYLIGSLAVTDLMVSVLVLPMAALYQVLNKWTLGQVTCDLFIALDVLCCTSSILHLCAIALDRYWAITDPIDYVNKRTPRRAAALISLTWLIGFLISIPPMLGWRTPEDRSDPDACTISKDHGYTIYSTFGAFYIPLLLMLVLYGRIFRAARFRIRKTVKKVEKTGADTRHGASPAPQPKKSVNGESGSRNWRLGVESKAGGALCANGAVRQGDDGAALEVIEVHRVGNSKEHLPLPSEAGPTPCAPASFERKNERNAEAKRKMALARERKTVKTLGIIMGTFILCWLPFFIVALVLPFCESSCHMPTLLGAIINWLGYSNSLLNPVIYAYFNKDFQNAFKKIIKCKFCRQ

SMILES	Activity [1]	Activity (HMLE)	EC50 [5] [µM]	further results
O=C(/C=C/c1ccc(C(F)(F)F)cc1)NC1=NCCS1	Non-toxic	inactive	–	–
COc1ccc(OC)c(/C=C/C(=O)NC2=NCCS2)c1	Non-toxic	inactive	–	–
CC(C)c1ccc(/C=C/C(=O)NC2=NCCS2)cc1	–	–	50.6	solubility at 24 h, 100 µM [2]: < 1 µM; selectivity ratio [3]: 21.5; EC50 [4]: 2.35 µM
Fc1ccc(C(OCCN2CCN(CCCc3ccccc3)CC2)c2ccc(F)cc2)cc1	–	–	–	inhibition [6]: 5%
O=C(O)C1=CCCN(CCON=C(c2ccccc2)c2ccccc2)C1	–	–	–	IC50 [7]: 0.2 µM; Ki [7]: 0.2 µM; inhibition (Rattus norvegicus [8]): -6%
CC(C)c1ccc(C2CC2C(=O)NC2=NCCS2)cc1 (stereo not given)	Non-toxic	inactive	–	–
COc1cccc(/C=C/C(=O)NC2=NCCS2)c1	–	–	62.1	EC50 [4]: 96.2 µM
CC(C)c1ccc(/C=C/C(=O)NC2CCCC2)cc1	–	–	123	selectivity ratio [3]: 2.07; EC50 [4]: 59.6 µM
O=C(/C=C/c1cc(Cl)ccc1Cl)NC1=NCCS1	Non-toxic	inactive	–	–
O=C(c1ccc(F)cc1)C1CCN(CCn2c(=O)[nH]c3ccccc3c2=O)CC1	–	–	–	inhibition [9]: 42%
COc1ccc(/C=C/C(=O)NC2=NCCS2)c(OC)c1OC	Non-toxic	inactive	–	–
CC(C)c1ccc(/C=C/C(=O)Nc2nccn2C)cc1	–	–	5.97	selectivity ratio [3]: 1.28; EC50 [4]: 4.65 µM
Cc1c(C(=O)NC2=NCCS2)oc2ccccc12	Non-toxic	inactive	–	–
O=C(/C=C/c1ccc(Cl)c(Cl)c1)NC1=NCCS1	Non-toxic	inactive	–	–
COc1cc(C(C)C)ccc1/C=C/C(=O)NC1=NCCS1	Non-toxic	–	28.4	–
CC(C)c1ccc(/C=C/C(=O)NC2=NC(=O)CS2)cc1	–	–	27	selectivity ratio [3]: 2.03; EC50 [4]: 13.3 µM
O=C(/C=C/c1ccccc1Cl)NC1=NCCS1	Non-toxic	–	35	–
CC(C)c1ccc(CCC(=O)NC2=NCCS2)cc1	Non-toxic	–	9.91	–
O=C(/C=C/c1ccc(Cl)cc1Cl)NC1=NCCS1	Non-toxic	inactive	–	–
Cc1ccccc1/C=C/C(=O)NC1=NCCS1	Non-toxic	inactive	–	–

SMILES	Activity [1]	Activity (HMLE)	EC50 [5] [µM]	further results
Cc1cccc(/C=C/C(=O)NC2=NCCS2)c1	Non-toxic	inactive	–	–
CC(C)c1ccc(/C=C/C(=O)N(C)C2=NCCS2)cc1	–	inactive	–	EC50 [4]: 21.1 µM
O=C(/C=C/c1ccc(-c2ccccc2)cc1)NC1=NCCS1	–	–	0.65	selectivity ratio [10]: 53.1; EC50 [4]: 34.6 µM
N#Cc1ccccc1/C=C/C(=O)NC1=NCCS1	Non-toxic	inactive	–	–
O=C(/C=C/c1ccc(Cl)cc1)NC1=NCCS1	–	–	13.6	selectivity ratio [10]: 0.73; EC50 [4]: 9.97 µM
CC(C)c1ccc(/C=C(\C#N)C(=O)NC2=NCCS2)cc1	Non-toxic	inactive	–	–
CN1C[C@H](CNC(=O)OCc2ccccc2)C[C@@H]2c3cccc4c3c(cn4C)C[C@H]21	–	–	–	inhibition [11]: -8%
O=C(/C=C/c1ccc(F)cc1)NC1=NCCS1	Non-toxic	inactive	–	–
CC(C)c1ccc(/C=C/C(=O)Nc2nccs2)cc1	–	–	7.26	selectivity ratio [3]: 2.05; EC50 [4]: 3.55 µM
N[C@@H](Cc1cc(I)c(Oc2ccc(O)c(I)c2)c(I)c1)C(=O)O	–	–	–	inhibition (Rattus norvegicus [12]): 6%
N#Cc1ccc(/C=C/C(=O)NC2=NCCS2)cc1	Non-toxic	–	26.9	–
CC(C)c1ccc(/C=C\C(=O)NC2=NCCS2)cc1	Non-toxic	inactive	–	–
COc1ccc(C2CNC(=O)C2)cc1OC1CCCC1 (stereo not given)	–	–	–	inhibition (Rattus norvegicus [13]): 16%
Cc1ccc(/C=C/C(=O)NC2=NCCS2)cc1	Non-toxic	–	16	–
CC(C)c1ccc(/C=C/C(=O)O)cc1	Non-toxic	inactive	–	–
Cn1c(C(=O)NC2=NCCS2)cc2ccccc21	Non-toxic	inactive	–	–
CC(C)c1ccc(/C=C/C(=O)Nc2ncc[nH]2)cc1	–	inactive	–	EC50 [4]: 51.6 µM
CC(C)c1ccc(/C=C/C(=O)Nc2nncs2)cc1	–	–	9.97	selectivity ratio [3]: 0.73; EC50 [4]: 13.6 µM
CN1[C@@H]2CC[C@H]1C[C@@H](OC(=O)c1cc(Cl)cc(Cl)c1)C2	–	–	–	inhibition [14]: 3%
Ic1ccccc1N[C@@H]1C2CCN(CC2)[C@@H]1C(c1ccccc1)c1ccccc1	–	–	–	IC50 (Substance-P receptor [15]): 0.0036 µM; Ki (Substance-P receptor [15]): 0.0026 µM; inhibition (Substance-P receptor [16]): 0%

SMILES	Activity [1]	Activity (HMLE)	EC50 [5] [µM]	further results
CCNC(=O)/C=C/c1ccc(C(C)C)cc1	Non-toxic	inactive	–	–
COc1cc(OC(C)C)ccc1/C=C/C(=O)NC1=NCCS1	Non-toxic	inactive	–	–
CCCCOc1cc(C(=O)NCCN(CC)CC)c2ccccc2n1 [DIBUCAINE]	–	–	–	IC50 [17]: 0.61 µM; Ki [17]: 0.55 µM; inhibition (Rattus norvegicus [18]): 10%
O=C(/C=C/c1cccc(Cl)c1)NC1=NCCS1	–	–	15	selectivity ratio [10]: 1.44; EC50 [4]: 21.5 µM
CC(C)Cc1ccc(/C=C/C(=O)NC2=NCCS2)cc1	–	–	0.478	selectivity ratio [10]: 4.54; EC50 [4]: 2.17 µM
C/C(=C\C(=O)NC1=NCCS1)c1ccc(CC(C)C)cc1	Non-toxic	inactive	–	–
COc1ccccc1/C=C/C(=O)NC1=NCCS1	–	inactive	–	EC50 [4]: 93.3 µM
COc1cc(/C=C/C(=O)NC2=NCCS2)cc(OC)c1OC	Non-toxic	inactive	–	–
CN(C)c1ccc(/C=C/C(=O)NC2=NCCS2)cc1	Non-toxic	–	27.4	–
O=C(NC1=NCCS1)c1cc2ccccc2[nH]1	Non-toxic	inactive	–	–
CCN(CC)C(=O)/C=C/c1ccc(C(C)C)cc1	Non-toxic	inactive	–	–
C/C(=C\C(=O)NC1=NCCS1)c1ccc(C)cc1	Non-toxic	inactive	–	–
CC(C)(C)c1ccc(/C=C/C(=O)NC2=NCCS2)cc1	–	inactive	–	EC50 [4]: 20.6 µM
N#Cc1cccc(/C=C/C(=O)NC2=NCCS2)c1	Non-toxic	inactive	–	–
CC(C)c1ccc(C#CC(=O)NC2=NCCS2)cc1	Non-toxic	inactive	–	–
COc1ccc(/C=C/C(=O)NC2=NCCS2)c(OC)c1	Non-toxic	–	9.91	–
O=C(/C=C/c1ccccc1)NC1=NCCS1	Non-toxic	inactive	–	–
CC(C)c1ccc(/C=C/C(=O)Nc2ccccc2)cc1	–	–	3.28	selectivity ratio [3]: 0.95; EC50 [4]: 3.44 µM
COc1ccc(/C=C/C(=O)NC2=NCCS2)cc1OC	Non-toxic	inactive	–	–
O=C(/C=C/c1ccc(-c2cccnc2)cc1)NC1=NCCS1	–	–	3.85	selectivity ratio [10]: 1.47; EC50 [4]: 5.65 µM
